Experimental data reported in EPA's ToxValDB 9.5 (doi:10.2903/j.efsa.2016.4500).
Values after ≈ are worked out from the molar mass of the structure shown.

Tests used:
Folsomia candida = details: chronic/long-term; duration: 28 days; reproduction
Oryctolagus sp. = details: reproduction developmental; clinical signs
Apis mellifera = details: acute, mortality
Canidae = details: chronic; duration: 1 years; oral; Dog Other; gross pathology
Tagia sp. = details: chronic/long-term; duration: 56 days; reproduction
Pimephales promelas = details: acute; duration: 96 hours; mortality
Rattus norvegicus = details: for LD50: acute, mortality
Aphidius rhopalosiphi = experiment: LR50; higher = less toxic; details: not reported; mortality
Typhlodromus pyri = experiment: LR50; higher = less toxic; details: not reported; mortality
Oncorhynchus mykiss = details: acute; duration: 96 hours; mortality
Bibionidae = details: chronic/long-term; duration: 28 days
[1] = chronic, duration: 2 years, organ weight

SMILES | NOEC (Folsomia candida) [mg/kg] | NOAEL (Oryctolagus sp.) [mg/kg-day] | LD50 (Apis mellifera; dermal) [µg/piece] | LD50 (Apis mellifera; oral, unspecified) [µg/piece] | NOAEL (Canidae) [mg/kg-day] | NOEC (Tagia sp.) [mg/kg] | LC50 (Pimephales promelas) [µg/mL] | LD50 (Rattus norvegicus) [mg/kg] | NOAEL (Rattus norvegicus; chronic) [mg/kg-day] | NOAEL (Rattus norvegicus; [1]) [mg/kg-day] | LR50 (Aphidius rhopalosiphi) [g/ha] | LR50 (Typhlodromus pyri) [g/ha] | LC50 (Oncorhynchus mykiss) [µg/mL] | LD50 (Colinus virginianus; acute, oral, mortality) [mg/kg] | NOEC (Colinus virginianus; chronic) [mg/kg-day] | NOEC (Bibionidae) [mg/kg] | LD50 (Rattus norvegicus; oral) [mg/kg] | NOAEL (Rattus norvegicus; reproduction developmental, reproduction) [mg/kg-day]
Oc1ccc(Cl)cc1Cl [2,4-Dichlorophenol] | 0.63 |  |  |  |  |  |  |  |  |  |  |  |  |  |  |  |  | 
O=C(O)COc1ccc(Cl)cc1Cl [2,4-Dichlorophenoxyacetic acid] |  | 30 | > 100 | 94 | 2.04 | 62.5 | 100 (≈ 452 µM) | 486 | 20.6 | 2.48 |  |  |  |  |  |  |  | 
O=C(O)CCCOc1ccc(Cl)cc1Cl [2,4-Dichlorophenoxybutyric acid] |  | 30 | > 100 | > 100 | 2.04 | 82.1 |  |  |  | 2.48 | > 1800 | > 1800 | 3 (≈ 12 µM) | 1540 | 101 | 24.6 | 1470 | 22.5
